Consider three molecules from the supplement of paper PMC10307832.

What all share (test): relative viability (nuclei count vs DMSO), 5 days (fraction); higher = more cells survive
For one assay, the system named is NCI-H1623. Put shortly:
(§1)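 Relative viability equals treated-well nuclei counts divided by vehicle-well nuclei counts. Counts came from 4× images of lung cancer cell lines grown in 1536-well plates for 5 days after pin-tool dosing on the day after seeding. Dosing used one drug alone or a fixed anchor-drug dose plus five library-drug doses (not always all listed) in √10 steps, and values are medians of duplicate plates.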

The test system of the next assay is NCI-H2023. Put shortly:
as §1

Another assay has as its system NCI-H520. Put shortly:
as §1

The next assay relates to NCI-H2170. Put shortly:
as §1

The test system of another assay is NCI-H727. In outline:
as §1

Each structure is given as a SMILES string.

Take `CN1CCN(CCOc2cc(OC3CCOCC3)c3c(Nc4c(Cl)ccc5c4OCO5)ncnc3c2)CC1` [Saracatinib] + Cc1nc(Nc2ncc(C(=O)Nc3c(C)cccc3Cl)s2)cc(N2CCN(CCO)CC2)n1 [Dasatinib] (partner 0.075 µM): the relative viability in the assay on NCI-H1623 (first compound 0.02 µM) came out at 0.562; in the assay on NCI-H1623 (first compound 0.2 µM) it was 0.416; with NCI-H1623 (first compound 0.6325 µM), 0.468; with NCI-H1623 (first compound 2 µM) it was 0.406; in the assay with NCI-H2023 (first compound 0.02 µM) it was 0.664; in the assay with NCI-H2023 (first compound 0.2 µM), 0.651. Further, the relative viability in the assay with NCI-H2023 (first compound 0.6325 µM) amounted to 0.608; in the assay on NCI-H2023 (first compound 2 µM), 0.553; in the assay on NCI-H520 (first compound 0.02 µM) it was 0.21; in the assay on NCI-H520 (first compound 0.6325 µM), 0.194; in the assay with NCI-H520 (first compound 2 µM), 0.244; in the assay on NCI-H2170 (first compound 0.02 µM), 0.766. For the same molecule, the relative viability in the assay on NCI-H2170 (first compound 0.2 µM) is 0.486; with NCI-H2170 (first compound 0.6325 µM), 0.548; in the assay on NCI-H2170 (first compound 2 µM), 0.265; with NCI-H727 (first compound 0.02 µM), 0.396; in the assay on NCI-H727 (first compound 0.2 µM), 0.377; in the assay on NCI-H727 (first compound 0.6325 µM), 0.564. Besides, the relative viability in the assay with NCI-H727 (first compound 2 µM) was determined as 0.356.

In the case of `Cc1cn(-c2cc(NC(=O)c3ccc(C)c(Nc4nccc(-c5cccnc5)n4)c3)cc(C(F)(F)F)c2)cn1` [Nilotinib] + Cc1nc(Nc2ncc(C(=O)Nc3c(C)cccc3Cl)s2)cc(N2CCN(CCO)CC2)n1 [Dasatinib] (partner 0.075 µM), the relative viability with NCI-H1623 (first compound 0.001 µM) came out at 0.597; with NCI-H1623 (first compound 0.003162 µM), 0.531; in the assay on NCI-H1623 (first compound 0.01 µM), 0.601; in the assay on NCI-H1623 (first compound 0.03162 µM), 0.508; in the assay with NCI-H1623 (first compound 0.1 µM), 0.408; in the assay with NCI-H2023 (first compound 0.001 µM), 0.471. The relative viability was 0.569 with NCI-H2023 (first compound 0.003162 µM); 0.828 in the assay on NCI-H2023 (first compound 0.01 µM); 0.418 with NCI-H2023 (first compound 0.03162 µM); 0.405 with NCI-H2023 (first compound 0.1 µM); 0.224 in the assay with NCI-H520 (first compound 0.001 µM); 0.171 in the assay with NCI-H520 (first compound 0.003162 µM). Besides, the relative viability with NCI-H520 (first compound 0.01 µM) came out at 0.198; in the assay with NCI-H520 (first compound 0.03162 µM), 0.156; with NCI-H520 (first compound 0.1 µM), 0.147; with NCI-H2170 (first compound 0.001 µM), 0.591; in the assay with NCI-H2170 (first compound 0.003162 µM), 0.576; in the assay on NCI-H2170 (first compound 0.01 µM) it was 0.736. Moreover, the relative viability in the assay with NCI-H2170 (first compound 0.03162 µM) came to 0.465; with NCI-H2170 (first compound 0.1 µM), 0.406; in the assay on NCI-H727 (first compound 0.001 µM), 0.415; in the assay with NCI-H727 (first compound 0.003162 µM), 0.339; in the assay on NCI-H727 (first compound 0.01 µM) it was 0.425; in the assay with NCI-H727 (first compound 0.03162 µM) it was 0.41. In addition, the relative viability in the assay with NCI-H727 (first compound 0.1 µM) is 0.302.

For the molecule `Cc1cn(-c2cc(NC(=O)c3ccc(C)c(Nc4nccc(-c5cccnc5)n4)c3)cc(C(F)(F)F)c2)cn1` [Nilotinib] + CCNC(=O)c1noc(-c2cc(C(C)C)c(O)cc2O)c1-c1ccc(CN2CCOCC2)cc1 [Luminespib] (partner 0.01 µM), the relative viability with NCI-H1623 (first compound 0.001 µM) stood at 0.43; with NCI-H1623 (first compound 0.003162 µM), 0.516; in the assay on NCI-H1623 (first compound 0.01 µM) it was 0.63; with NCI-H1623 (first compound 0.03162 µM), 0.498; with NCI-H1623 (first compound 0.1 µM), 0.544; in the assay on NCI-H2023 (first compound 0.001 µM) it was 0.854. For the same molecule, the relative viability in the assay on NCI-H2023 (first compound 0.003162 µM) was 0.89; with NCI-H2023 (first compound 0.01 µM) it was 0.99; with NCI-H2023 (first compound 0.03162 µM) it was 1.07; in the assay with NCI-H2023 (first compound 0.1 µM), 0.38; in the assay with NCI-H520 (first compound 0.001 µM), 0.308; in the assay with NCI-H520 (first compound 0.01 µM), 0.244. Also, the relative viability in the assay on NCI-H520 (first compound 0.03162 µM) was found to be 0.223; in the assay with NCI-H520 (first compound 0.1 µM), 0.216; in the assay with NCI-H2170 (first compound 0.001 µM) it was 0.591; in the assay with NCI-H2170 (first compound 0.003162 µM), 1.11; with NCI-H2170 (first compound 0.01 µM), 1.5; in the assay on NCI-H2170 (first compound 0.03162 µM), 0.328. Besides, the relative viability with NCI-H2170 (first compound 0.1 µM) came out at 0.877; with NCI-H727 (first compound 0.001 µM) it was 0.349; in the assay on NCI-H727 (first compound 0.003162 µM), 0.516; in the assay with NCI-H727 (first compound 0.01 µM) it was 0.227; in the assay with NCI-H727 (first compound 0.03162 µM) it was 0.281; in the assay on NCI-H727 (first compound 0.1 µM), 0.344.
